The supplement of paper PMC10307832

compound: C[C@]1(c2nc3c(C(N)=O)cccc3[nH]2)CCCN1 [Veliparib] + C[C@@H](Oc1cc(-c2cnn(C3CCNCC3)c2)cnc1N)c1c(Cl)ccc(F)c1Cl [Crizotinib] (partner 1 µM); assay: relative viability (nuclei count vs DMSO), 5 days (fraction); higher = more cells survive; details: first compound 0.02 µM
Method in brief: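 Relative viability was taken as the ratio of nuclei in treated wells to nuclei in vehicle wells. Lung cancer cell lines in 1536-well plates received compounds by pin tool one day after seeding, either one drug alone or a fixed anchor-drug dose plus five library-drug doses (not always all listed) in √10 steps. Nuclei were counted on 4× images after 5 days of treatment, and values are medians of duplicate plates.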

Row | Cell Line | relative viability
1 | COR-L23 | 0.637
2 | HCC-827 | 0.913
3 | LCLC-103H | 1.1
4 | RERF-LC-KJ | 0.893
5 | NCI-H3122 | 0.247
6 | BEN | 0.735
7 | UMC-11 | 0.549
8 | LCLC-97TM1 | 0.248
9 | NCI-H2085 | 0.9
10 | A-427 | 0.884
11 | NCI-H727 | 0.814
12 | NCI-H838 | 0.859
13 | 201T | 1.03
14 | LOU-NH91 | 0.729
15 | NCI-H1666 | 0.94
16 | NCI-H650 | 0.696
17 | NCI-H1993 | 0.836
18 | HCC-44 | 0.834
19 | NCI-H647 | 1.07
20 | NCI-H2126 | 0.966
21 | NCI-H1755 | 0.84
22 | PC-3 [JPC-3] | 0.996
23 | NCI-H1792 | 0.98
24 | NCI-H2087 | 0.729
25 | NCI-H441 | 0.663
26 | HOP-62 | 0.981
27 | NCI-H2347 | 0.798
28 | HARA | 1.03
29 | NCI-H1915 | 0.866

same assay, conditions: first compound 0.06325 µM

Row | Cell Line | relative viability
30 | LC-2-ad | 0.396
31 | NCI-H1651 | 0.853
32 | COR-L23 | 0.605
33 | HCC-827 | 0.919
34 | LCLC-103H | 0.982
35 | RERF-LC-KJ | 0.751
36 | NCI-H3122 | 0.297
37 | BEN | 0.97
38 | UMC-11 | 0.654
39 | LCLC-97TM1 | 0.349
40 | NCI-H2085 | 0.805
41 | A-427 | 0.837
42 | NCI-H727 | 0.685
43 | NCI-H838 | 0.9
44 | 201T | 0.978
45 | LOU-NH91 | 0.719
46 | NCI-H1666 | 0.826

Row | Cell Line | relative viability
47 | NCI-H650 | 0.72
48 | ChaGo-K-1 | 1.05
49 | NCI-H1993 | 0.822
50 | HCC-44 | 0.708
51 | NCI-H647 | 1.01
52 | NCI-H2126 | 1.02
53 | NCI-H1755 | 0.853
54 | PC-3 [JPC-3] | 0.961
55 | NCI-H1792 | 0.919
56 | NCI-H2087 | 0.722
57 | NCI-H441 | 0.645
58 | HOP-62 | 0.795
59 | NCI-H2347 | 0.839
60 | HARA | 0.996
61 | NCI-H1355 | 1.03
62 | NCI-H1915 | 0.869

same assay, conditions: first compound 0.2 µM

Row | Cell Line | relative viability
63 | LC-2-ad | 0.483
64 | NCI-H1651 | 0.805
65 | COR-L23 | 0.718
66 | HCC-827 | 0.947
67 | LCLC-103H | 1.02
68 | RERF-LC-KJ | 0.847
69 | NCI-H3122 | 0.26
70 | BEN | 1.01
71 | UMC-11 | 0.595
72 | LCLC-97TM1 | 0.354
73 | NCI-H2085 | 0.702
74 | A-427 | 0.864
75 | NCI-H727 | 0.855
76 | NCI-H838 | 0.851
77 | 201T | 0.964
78 | LOU-NH91 | 0.745
79 | NCI-H1666 | 1.03

Row | Cell Line | relative viability
80 | NCI-H650 | 0.708
81 | ChaGo-K-1 | 1.08
82 | NCI-H1993 | 0.815
83 | HCC-44 | 0.85
84 | NCI-H647 | 1.23
85 | NCI-H2126 | 0.988
86 | NCI-H1755 | 0.794
87 | PC-3 [JPC-3] | 0.914
88 | NCI-H1792 | 0.942
89 | NCI-H2087 | 0.831
90 | NCI-H441 | 0.745
91 | HOP-62 | 0.836
92 | NCI-H2347 | 0.678
93 | HARA | 0.954
94 | NCI-H1355 | 0.996
95 | NCI-H1915 | 0.803

same assay, conditions: first compound 0.6325 µM

Row | Cell Line | relative viability
96 | LC-2-ad | 0.46
97 | NCI-H1651 | 0.799
98 | COR-L23 | 0.584
99 | HCC-827 | 0.921
100 | LCLC-103H | 0.875
101 | RERF-LC-KJ | 0.784
102 | NCI-H3122 | 0.268
103 | BEN | 0.783
104 | UMC-11 | 0.547
105 | NCI-H2085 | 0.738
106 | A-427 | 0.83
107 | NCI-H727 | 0.668
108 | NCI-H838 | 0.83
109 | 201T | 0.992
110 | LOU-NH91 | 0.688
111 | NCI-H1666 | 0.995

Row | Cell Line | relative viability
112 | NCI-H650 | 0.665
113 | ChaGo-K-1 | 1.06
114 | NCI-H1993 | 0.787
115 | HCC-44 | 0.74
116 | NCI-H647 | 1.03
117 | NCI-H2126 | 0.988
118 | NCI-H1755 | 0.832
119 | PC-3 [JPC-3] | 0.96
120 | NCI-H1792 | 0.93
121 | NCI-H2087 | 0.806
122 | NCI-H441 | 0.593
123 | HOP-62 | 0.866
124 | NCI-H2347 | 0.652
125 | HARA | 0.848
126 | NCI-H1355 | 0.986
127 | NCI-H1915 | 0.754

same assay, conditions: first compound 2 µM

Row | Cell Line | relative viability
128 | LC-2-ad | 0.443
129 | NCI-H1651 | 0.83
130 | COR-L23 | 0.651
131 | HCC-827 | 0.905
132 | LCLC-103H | 1.09
133 | RERF-LC-KJ | 0.783
134 | NCI-H3122 | 0.304
135 | BEN | 0.884
136 | UMC-11 | 0.577
137 | LCLC-97TM1 | 0.234
138 | NCI-H2085 | 0.809
139 | A-427 | 0.836
140 | NCI-H727 | 0.764
141 | NCI-H838 | 0.895
142 | 201T | 0.997
143 | LOU-NH91 | 0.774
144 | NCI-H1666 | 1.07

Row | Cell Line | relative viability
145 | NCI-H650 | 0.572
146 | ChaGo-K-1 | 1.09
147 | NCI-H1993 | 0.771
148 | HCC-44 | 0.835
149 | NCI-H647 | 0.907
150 | NCI-H2126 | 0.933
151 | NCI-H1755 | 0.805
152 | PC-3 [JPC-3] | 0.985
153 | NCI-H1792 | 0.939
154 | NCI-H2087 | 0.61
155 | NCI-H441 | 0.63
156 | HOP-62 | 0.933
157 | NCI-H2347 | 0.616
158 | HARA | 1.06
159 | NCI-H1355 | 0.955
160 | NCI-H1915 | 0.771
